Experimental data as given in patent US9944678B2, “Immunomodulators” (BRISTOL-MYERS SQUIBB COMPANY, priority 2014, dated 2018).
Starred links: 1 amine or outer side, 2 acyl side, 3 side chain; linkers in the order of their positions; H or OH if unused. Positions of bridges follow the written chain, without caps; N, C: chain ends. Non-standard residues stand in square brackets, D forms with d. Residues, ends and D or L forms follow the SMILES beside them. ξ: configuration not given here. X5 = NC(=O)CNC(=O)[C@H](CSCC(=O)[*:1])CC(=O)C1(N[*:2])CC1; X1 = C=C[C@H]1C[C@@]1(N[*:1])C(=O)[*:2]; X2 = CC[C@H]1C[C@@]1(N[*:1])C(=O)[*:2]; X4 = C[C@H]1C[C@@]1(N[*:1])C(=O)[*:2]; Bta = N[C@@H](Cc1csc2ccccc12)C(=O)O; Hyp = O=C(O)[C@@H]1C[C@@H](O)CN1; NMeNle = CCCC[C@H](NC)C(=O)O; hLeu = CC(C)CC[C@H](N)C(=O)O; NMeA = CN[C@@H](C)C(=O)O; Ac5c = NC1(C(=O)O)CCCC1; Dab = NCC[C@H](N)C(=O)O; Dap = NC[C@H](N)C(=O)O; Ac3c = NC1(C(=O)O)CC1; Aib = CC(C)(N)C(=O)O; ξC = NC(CS)C(=O)O; Sar = CNCC(=O)O

target: T1, PD-1-Ig binding to PD-L1-TVMV-His (PD-L1-His) (Homo sapiens, UniProt Q9NZQ7); assay: PD-1/PD-L1 Homogenous Time-Resolved Fluorescence (HTRF) binding assay; conditions: PD-1-Ig/PD-L1-His binding; numeric values
T1 construct: hPDL1(19-239)-TVMV-His; TVMV protease cleavage site (C); made in house; host or cells: HEK293T cells
T1 sequence (Q9NZQ7 with tags, fused parts or gaps): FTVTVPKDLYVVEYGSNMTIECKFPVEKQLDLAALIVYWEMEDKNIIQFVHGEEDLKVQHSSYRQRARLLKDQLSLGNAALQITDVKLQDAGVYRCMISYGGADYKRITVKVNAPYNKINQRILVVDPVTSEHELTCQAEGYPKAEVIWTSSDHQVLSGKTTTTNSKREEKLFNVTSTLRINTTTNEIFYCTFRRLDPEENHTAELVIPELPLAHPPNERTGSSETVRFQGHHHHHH
Excerpt: The ability of the macrocyclic peptides of the present disclosure to bind to PD-L1 was investigated using a PD-1/PD-L1 Homogenous Time-Resolved Fluorescence (HTRF) binding assay.
Homogenous Time-Resolved Fluorescence (HTRF) Assays of Binding of Soluble PD-1 to Soluble PD-L1. Soluble PD-1 and soluble PD-L1 refers to proteins with carboxyl-end truncations that remove the transmembrane-spanning regions and are fused to heterologous sequences, specifically the Fc portion of the human immunoglobuling G sequence (Ig) or the hexahistidine epitope tag (His). All binding studies were performed in an HTRF assay buffer consisting of dPBS supplemented with 0.1% (w/v) bovine serum albumin and 0.05% (v/v) Tween-20. For the PD-1-Ig/PD-L1-His binding assay, inhibitors were pre-incubated with PD-L1-His (10 nM final) for 15 m in 4 μl of assay buffer, followed by addition of PD-1-Ig (20 nM final) in 1 μl of assay buffer and further incubation for 15 m. PD-L1 fusion proteins from either human, cynomologous macaques, mouse, or other species were used. HTRF detection was achieved using europium crypate-labeled anti-Ig monoclonal antibody (1 nM final) and allophycocyanin (APC) labeled anti-His monoclonal antibody (20 nM final). Antibodies were diluted in HTRF detection buffer and 5 μl was dispensed on top of binding reaction. The reaction was allowed to equilibrate for 30 minutes and signal (665 nm/620 nm ratio) was obtained using an EnVision fluorometer. Additional binding assays were established between PD-1-Ig/PD-L2-His (20 and 5 nM, respectively), CD80-His/PD-L1-Ig (100 and 10 nM, respectively) and CD80-His/CTLA4-Ig (10 and 5 nM, respectively). Binding/competition studies between biotinylated Compound No. 71 and human PD-L1-His were performed as follows. Macrocyclic peptide inhibitors were pre-incubated with PD-L1-His (10 nM final) for 60 minutes in 4 μl of assay buffer followed by addition of biotinylated Compound No. 71 (0.5 nM final) in 1 μl of assay buffer. Binding was allowed to equilibrate for 30 minutes followed by addition of europium crypated labeled Streptavidin (2.5 pM final) and APC-labeled anti-His (20 nM final) in 5 μl of HTRF buffer. The reaction was allowed to equilibrate for 30 m and signal (665 nm/620 nm ratio) was obtained using an EnVision fluorometer.
Recombinant Proteins. Carboxyl-truncated human PD-1 (amino acids 25-167) with a C-terminal human Ig epitope tag [hPD-1 (25-167)-3S-IG] and human PD-L1 (amino acids 18-239) with a C-terminal His epitope tag [hPD-L1(19-239)-tobacco vein mottling virus protease cleavage site (TVMV)-His] were expressed in HEK293T cells and purified sequentially by recombinant Protein A affinity chromatography and size exclusion chromatography. Human PD-L2-His (Sino Biologicals), CD80-His (Sino Biologicals), CTLA4-Ig (RnD Systems) were all obtained through commercial sources.
Ranges are as follows: A=0.10-10 μM; B=0.01-0.099 μM; C=0.004-0.0099 μM.

IC50, 3620 nM:
CCCC[C@H]1C(=O)N(C)[C@@H](CCCC)C(=O)N[C@@H](CC(C)C)C(=O)N[C@H](C(=O)NCC(N)=O)CSCC(=O)N[C@@H](Cc2ccc(O)cc2)C(=O)N(C)[C@@H](C)C(=O)N[C@@H](CC(N)=O)C(=O)N2CCC[C@H]2C(=O)N[C@@H](CN)C(=O)N[C@@H](CC(C)C)C(=O)N2C[C@H](O)C[C@H]2C(=O)N[C@@H](Cc2c[nH]c3ccccc23)C(=O)NC2(CC2)C(=O)N[C@@H](Cc2c[nH]c3ccccc23)C(=O)N1C [Example 9008] ({CH2CO}-Y[NMeA]NP[Dap]L[Hyp]W[Ac3c]W[NMeNle][NMeNle]LCG-NH2; thioether N-14)

IC50, 40 nM:
CCCC[C@H]1C(=O)N(C)[C@@H](CCCC)C(=O)NC2(CC2)C(=O)N[C@H](C(=O)NCC(N)=O)CSCC(=O)N[C@@H](Cc2ccc(O)cc2)C(=O)N(C)[C@@H](C)C(=O)N[C@@H](CC(N)=O)C(=O)N2CCC[C@H]2C(=O)N[C@@H](CN)C(=O)N[C@@H](CC(C)C)C(=O)N2C[C@H](O)C[C@H]2C(=O)N[C@@H](Cc2c[nH]c3ccccc23)C(=O)N[C@@H](CCN)C(=O)N[C@@H](Cc2c[nH]c3ccccc23)C(=O)N1C [Example 9006] ({CH2CO}-Y[NMeA]NP[Dap]L[Hyp]W[Dab]W[NMeNle][NMeNle][Ac3c]CG-NH2; thioether N-14)

same assay, conditions: PD-1-Ig/PD-L1-His binding; values given as range classes

IC50, 10 to 99 nM:
CCCC[C@H]1C(=O)N(C)[C@@H](CCCC)C(=O)NC2(CCCC2)C(=O)N[C@H](C(=O)NCC(N)=O)CSCC(=O)N[C@@H](Cc2ccc(O)cc2)C(=O)N(C)[C@@H](C)C(=O)N[C@@H](CC(N)=O)C(=O)N2CCC[C@H]2C(=O)N[C@@H](CN)C(=O)N[C@@H](CC(C)C)C(=O)N2C[C@H](O)C[C@H]2C(=O)N[C@@H](Cc2c[nH]c3ccccc23)C(=O)N[C@@H](CCN)C(=O)N[C@@H](Cc2c[nH]c3ccccc23)C(=O)N1C [Example 9015] ({CH2CO}-Y[NMeA]NP[Dap]L[Hyp]W[Dab]W[NMeNle][NMeNle][Ac5c]CG-NH2; thioether N-14)

IC50, 100 to 10000 nM:
CCCC[C@H]1C(=O)N(C)[C@@H](CCCC)C(=O)N[C@@H](CC(C)C)C(=O)N[C@H](C(=O)NCC(N)=O)CSCC(=O)N[C@@H](Cc2ccc(O)cc2)C(=O)N(C)[C@@H](C)C(=O)N[C@@H](CC(N)=O)C(=O)N2CCC[C@H]2C(=O)N[C@@H](CN)C(=O)N[C@@H](CC(C)C)C(=O)N2C[C@H](O)C[C@H]2C(=O)N[C@@H](Cc2c[nH]c3ccccc23)C(=O)NC(C)(C)C(=O)N[C@@H](Cc2c[nH]c3ccccc23)C(=O)N1C [Example 9007] ({CH2CO}-Y[NMeA]NP[Dap]L[Hyp]W[Aib]W[NMeNle][NMeNle]LCG-NH2; thioether N-14), CCCC[C@H]1C(=O)N(C)[C@@H](CCCC)C(=O)N[C@@H](CCCNC(=N)N)C(=O)N[C@H](C(=O)NCC(N)=O)CSCC(=O)N[C@@H](Cc2ccccc2)C(=O)N(C)[C@@H](C)C(=O)N[C@@H](CC(N)=O)C(=O)N2CCC[C@H]2C(=O)N[C@@H](Cc2cnc[nH]2)C(=O)N[C@@H](CC(C)C)C(=O)N(C)CC(=O)N[C@@H](Cc2c[nH]c3ccccc23)C(=O)NC(C)(C)C(=O)N[C@@H](Cc2c[nH]c3ccccc23)C(=O)N1C [Example 1003] ({CH2CO}-F[NMeA]NPHL[Sar]W[Aib]W[NMeNle][NMeNle]RCG-NH2; thioether N-14), CCCC[C@H]1C(=O)N(C)[C@@H](CCCC)C(=O)NC(C)(C)C(=O)N[C@H](C(=O)NCC(N)=O)CSCC(=O)N[C@@H](Cc2ccc(O)cc2)C(=O)N(C)[C@@H](C)C(=O)N[C@@H](CC(N)=O)C(=O)N2CCC[C@H]2C(=O)N[C@@H](CN)C(=O)N[C@@H](CC(C)C)C(=O)N2C[C@H](O)C[C@H]2C(=O)N[C@@H](Cc2c[nH]c3ccccc23)C(=O)N[C@@H](CCN)C(=O)N[C@@H](Cc2c[nH]c3ccccc23)C(=O)N1C [Example 9005] ({CH2CO}-Y[NMeA]NP[Dap]L[Hyp]W[Dab]W[NMeNle][NMeNle][Aib]CG-NH2; thioether N-14), C=C[C@H]1C[C@]12NC(=O)[C@H](CC(N)=O)NC(=O)[C@H](C)N(C)C(=O)[C@H](Cc1ccc(O)cc1)NC(=O)CSCC(C(=O)NCC(N)=O)NC(=O)[C@H](CCCNC(=N)N)NC(=O)[C@H](CCCC)N(C)C(=O)[C@H](CCCC)N(C)C(=O)[C@H](Cc1csc3ccccc13)NC(=O)[C@H](CO)NC(=O)[C@H](Cc1c[nH]c3ccccc13)NC(=O)[C@@H]1CCCN1C(=O)[C@H](CC(C)C)NC(=O)[C@H](Cc1cnc[nH]1)NC2=O (stereo partly drawn) [Example 10001] ({CH2CO}-Y[NMeA]N[X1]HLPWS[Bta][NMeNle][NMeNle]R[ξC]G-NH2; thioether N-14), CCCC[C@H]1C(=O)N(C)[C@@H](CCCC)C(=O)N[C@@H](CCCNC(=N)N)C(=O)NC(C(=O)NCC(N)=O)CSCC(=O)N[C@@H](Cc2ccc(O)cc2)C(=O)N(C)[C@@H](C)C(=O)N[C@@H](CC(N)=O)C(=O)N2C[C@H](O)C[C@H]2C(=O)N[C@@H](Cc2cnc[nH]2)C(=O)N[C@@H](CC(C)C)C(=O)NC2(C[C@@H]2C)C(=O)N[C@@H](Cc2c[nH]c3ccccc23)C(=O)N[C@@H](CO)C(=O)N[C@@H](Cc2c[nH]c3ccccc23)C(=O)N1C (stereo partly drawn) [Example 10007], CCCC[C@H]1C(=O)N(C)[C@@H](CCCC)C(=O)N[C@@H](CCCNC(=N)N)C(=O)NC(C(=O)NCC(N)=O)CSCC(=O)N[C@@H](Cc2ccc(O)cc2)C(=O)N(C)[C@@H](C)C(=O)N[C@@H](CC(N)=O)C(=O)N[C@]2(C[C@@H]2CC)C(=O)N[C@@H](Cc2cnc[nH]2)C(=O)N[C@@H](CC(C)C)C(=O)N2CCC[C@H]2C(=O)N[C@@H](Cc2c[nH]c3ccccc23)C(=O)N[C@@H](CO)C(=O)N[C@@H](Cc2c[nH]c3ccccc23)C(=O)N1C (stereo partly drawn) [Example 10010] ({CH2CO}-Y[NMeA]N[X2]HLPWSW[NMeNle][NMeNle]R[ξC]G-NH2; thioether N-14), CCCC[C@H]1C(=O)N(C)[C@@H](CCCC)C(=O)N[C@@H](CCCNC(=N)N)C(=O)NC(C(=O)NCC(N)=O)CSCC(=O)N[C@@H](Cc2ccc(O)cc2)C(=O)N(C)[C@@H](C)C(=O)N[C@@H](CC(N)=O)C(=O)N[C@]2(C[C@@H]2C)C(=O)N[C@@H](Cc2cnc[nH]2)C(=O)N[C@@H](CC(C)C)C(=O)N2CCC[C@H]2C(=O)N[C@@H](Cc2c[nH]c3ccccc23)C(=O)N[C@@H](CO)C(=O)N[C@@H](Cc2csc3ccccc23)C(=O)N1C (stereo partly drawn) [Example 10003] ({CH2CO}-Y[NMeA]N[X4]HLPWS[Bta][NMeNle][NMeNle]R[ξC]G-NH2; thioether N-14), CCCC[C@H]1C(=O)N(C)[C@@H](CCCC)C(=O)NC2(CC2)C(=O)C[C@H](C(=O)NCC(N)=O)CSCC(=O)N[C@@H](Cc2ccccc2)C(=O)N(C)[C@@H](C)C(=O)N[C@@H](CC(N)=O)C(=O)N2CCC[C@H]2C(=O)N[C@@H](Cc2c[nH]cn2)C(=O)N[C@@H](CCC(C)C)C(=O)NCC(=O)N[C@@H](Cc2c[nH]c3ccccc23)C(=O)N[C@@H](CO)C(=O)N[C@@H](Cc2c[nH]c3ccccc23)C(=O)N1C [Example 5001] (F[NMeA]NPH[hLeu]GWSW[NMeNle][NMeNle]; linker N-C via X5), CCCC[C@H]1C(=O)N(C)[C@@H](CCCC)C(=O)N[C@@H](CC(C)C)C(=O)N[C@H](C(=O)NCC(N)=O)CSCC(=O)N[C@@H](Cc2ccc(O)cc2)C(=O)N(C)[C@@H](C)C(=O)NC(C)(C)C(=O)N2CCC[C@H]2C(=O)N[C@@H](CN)C(=O)N[C@@H](CC(C)C)C(=O)N2C[C@H](O)C[C@H]2C(=O)N[C@@H](Cc2c[nH]c3ccccc23)C(=O)N[C@@H](CCN)C(=O)N[C@@H](Cc2c[nH]c3ccccc23)C(=O)N1C [Example 9013] ({CH2CO}-Y[NMeA][Aib]P[Dap]L[Hyp]W[Dab]W[NMeNle][NMeNle]LCG-NH2; thioether N-14)
